Where a name gives a salt, the structure may show the parent alone.
Experiments:
human 5-HT1A receptor = target: T1, human 5-HT1A receptor (Homo sapiens, UniProt P08908); assay: Determination of Ki values at 5-HT1A receptor ([3H]-8-Hydroxy DPAT radioligand binding); settings: h5-HT1A, HEK293-EBNA, [3H]-8-Hydroxy DPAT 0.8 nM
T1 construct: expressed in transfected cells; host or cells: HEK293-EBNA
T1 sequence (P08908 1-422): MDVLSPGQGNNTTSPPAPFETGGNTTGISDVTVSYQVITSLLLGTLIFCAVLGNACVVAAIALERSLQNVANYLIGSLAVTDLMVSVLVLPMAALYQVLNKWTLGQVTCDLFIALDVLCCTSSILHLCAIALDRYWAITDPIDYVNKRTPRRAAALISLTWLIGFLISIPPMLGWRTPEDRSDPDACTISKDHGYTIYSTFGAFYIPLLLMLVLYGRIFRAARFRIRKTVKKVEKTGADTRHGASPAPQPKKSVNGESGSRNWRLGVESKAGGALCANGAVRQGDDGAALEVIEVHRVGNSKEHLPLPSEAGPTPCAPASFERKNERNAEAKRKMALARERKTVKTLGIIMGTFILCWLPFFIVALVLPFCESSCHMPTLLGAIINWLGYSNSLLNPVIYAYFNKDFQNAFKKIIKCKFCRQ
Description: Example-43: Determination of Ki Values at 5-HT1A Receptor
• Receptor source: Recombinant mammalian cells (HEK293-EBNA) • Radioligand: [^3H]-8-Hydroxy DPAT (200 Ci/mmol) • Final ligand concentration: 0.8 nM • Non-specific determinant: 0.1 mM U92016A • Reference compound: U92016A • Positive control: U92016A Incubation conditions: Reactions were carried out in buffer with pH 7.4 containing 50 mM Tris-HCl, 0.5 mM EDTA, 10 mM MgSO4, 0.1% Ascorbic acid for 2 h at RT. The reaction was terminated by rapid vacuum filtration onto the glass fiber filters. Radioactivity trapped onto the filters was determined and compared to the control values in order to ascertain any interactions of the test compound(s) with cloned human 5-HT1A receptor binding site.

human 5-HT2A receptor = target: T2, human 5-HT2A receptor (Homo sapiens, UniProt P28223); assay: Determination of Ki values at 5-HT2A receptor ([3H]-Ketanserine radioligand binding); settings: h5-HT2A, CHO-K1, [3H]-Ketanserine 1.25 nM
T2 construct: expressed in transfected cells; host or cells: CHO-K1
T2 sequence (P28223 whole entry): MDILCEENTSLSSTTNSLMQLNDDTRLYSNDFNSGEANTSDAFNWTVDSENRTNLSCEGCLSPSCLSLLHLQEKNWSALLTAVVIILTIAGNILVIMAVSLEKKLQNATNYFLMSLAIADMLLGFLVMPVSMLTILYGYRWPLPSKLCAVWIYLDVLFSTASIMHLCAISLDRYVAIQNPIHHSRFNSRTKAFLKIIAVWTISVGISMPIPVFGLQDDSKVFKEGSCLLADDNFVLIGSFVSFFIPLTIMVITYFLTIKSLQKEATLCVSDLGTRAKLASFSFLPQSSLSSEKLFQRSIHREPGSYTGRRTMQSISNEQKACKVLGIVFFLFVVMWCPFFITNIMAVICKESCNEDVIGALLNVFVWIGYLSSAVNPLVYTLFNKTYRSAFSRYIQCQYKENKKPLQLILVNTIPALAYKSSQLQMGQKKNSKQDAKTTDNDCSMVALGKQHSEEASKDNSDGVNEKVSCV
Description: Example-44: Determination of Ki Values at 5-HT2A Receptor
• Receptor source: Recombinant mammalian cells (CHO-K1) • Radioligand: [^3H]-Ketanserine (41.9 Ci/mmol) • Final ligand concentration: 1.25 nM • Non-specific determinant: 0.1 mM 1-Napthyl piperazine (1-NP) • Reference compound: 1-Napthyl piperazine (1-NP) • Positive control: 1-Napthyl piperazine (1-NP) Incubation conditions: Reactions were carried out in buffer with pH 7.4 containing 50 mM Tris-HCl, 4 mM CaCl2, 0.1% Ascorbic acid for 1 h at RT. The reaction was terminated by rapid vacuum filtration onto the glass fiber filters. Radioactivity trapped onto the filters was determined and compared to the control values in order to ascertain any interactions of the test compound(s) with cloned human 5-HT2A receptor binding site.

[1] = target: T3, human dopamine D2s receptor (Homo sapiens, UniProt P14416); assay: Determination of Ki values at D2S receptor ([3H]-Raclopride radioligand binding); settings: hD2 (D2S), CHO-K1, [3H]-Raclopride 4 nM; read-out: Ki D2
T3 construct: expressed in transfected cells; host or cells: CHO-K1
T3 sequence (P14416 1-414 isoform P14416-2): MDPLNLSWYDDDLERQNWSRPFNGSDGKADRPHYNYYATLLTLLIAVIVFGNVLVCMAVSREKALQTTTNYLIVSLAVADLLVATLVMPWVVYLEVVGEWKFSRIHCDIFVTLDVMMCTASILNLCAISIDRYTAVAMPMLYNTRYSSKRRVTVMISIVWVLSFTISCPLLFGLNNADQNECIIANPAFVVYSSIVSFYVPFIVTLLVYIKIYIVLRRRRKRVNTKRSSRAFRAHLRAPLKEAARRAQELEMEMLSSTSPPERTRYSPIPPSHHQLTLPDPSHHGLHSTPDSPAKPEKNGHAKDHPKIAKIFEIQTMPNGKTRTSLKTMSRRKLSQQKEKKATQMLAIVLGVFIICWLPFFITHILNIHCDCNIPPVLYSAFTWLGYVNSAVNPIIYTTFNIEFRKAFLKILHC
Description: Example-45: Determination of Ki Values at D2S Receptor
• Receptor source: Recombinant mammalian cells (CHO-K1) • Radioligand: [^3H]-Raclopride (80.8 Ci/mmol) • Final ligand concentration: 4 nM • Non-specific determinant: 0.1 mM Haloperidol • Reference compound: Haloperidol • Positive control: Haloperidol Incubation conditions: Reactions were carried out in buffer with pH 7.4 containing 50 mM Tris-HCl, 120 mM NaCl, 5 mM KCl, 5 mM MgCl2, 1 mM EDTA for 2 h at RT. The reaction was terminated by rapid vacuum filtration onto the glass fiber filters. Radioactivity trapped onto the filters was determined and compared to the control values in order to ascertain any interactions of the test compound(s) with cloned human dopamine D2s receptor binding site.

human SERT = target: T4, human SERT (Homo sapiens, UniProt P31645); assay: Determination of Ki values at SERT receptor ([3H]-Citalopram SPA binding); settings: hSERT, HEK293, [3H]-Citalopram 2 nM
T4 construct: expressed in transfected cells; host or cells: HEK293
T4 sequence (P31645 whole entry): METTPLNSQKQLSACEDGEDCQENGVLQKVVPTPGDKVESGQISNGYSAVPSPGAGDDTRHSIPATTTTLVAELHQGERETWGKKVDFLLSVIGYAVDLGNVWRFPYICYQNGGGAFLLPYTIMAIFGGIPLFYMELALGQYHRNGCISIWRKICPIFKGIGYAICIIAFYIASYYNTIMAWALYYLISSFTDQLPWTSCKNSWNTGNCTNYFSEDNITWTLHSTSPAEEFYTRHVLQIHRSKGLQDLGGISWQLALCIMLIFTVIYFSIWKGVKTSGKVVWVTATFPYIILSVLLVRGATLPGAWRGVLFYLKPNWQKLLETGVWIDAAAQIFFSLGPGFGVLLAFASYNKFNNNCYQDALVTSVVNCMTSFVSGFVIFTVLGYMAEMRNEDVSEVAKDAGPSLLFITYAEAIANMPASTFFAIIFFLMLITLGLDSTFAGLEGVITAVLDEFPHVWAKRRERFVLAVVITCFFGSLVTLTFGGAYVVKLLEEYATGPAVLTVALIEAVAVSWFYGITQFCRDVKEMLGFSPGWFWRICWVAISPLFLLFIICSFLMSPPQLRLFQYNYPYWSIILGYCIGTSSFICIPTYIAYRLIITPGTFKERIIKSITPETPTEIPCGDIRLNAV
Description: Example-46: Determination of Ki Values at SERT Receptor
• Receptor source: Recombinant mammalian cells (HEK293) • Radioligand: [^3H]-Citalopram (80.8 Ci/mmol) • Final ligand concentration: 2 nM • Non-specific determinant: 0.1 mM Venlafaxine • Reference compound: Venlafaxine • Positive control: Venlafaxine Incubation conditions: Reactions were carried out in buffer with pH 7.4 containing 50 mM Tris-HCl, 150 mM NaCl, 5 mM KCl and Scintillation proximity assay (SPA) beads (0.1 mg/well) for 3 h at RT. Radioactivity proximal to SPA beads was determined by scintillation proximity assay and compared to the control values in order to ascertain any interactions of the test compound(s) with cloned human SERT receptor binding site.

[2] = target: T5, human adrenergic α1B receptor (Homo sapiens, UniProt P35368); assay: Determination of Ki values at adrenergic α1B receptor ([3H]-Prazosin radioligand binding); settings: hα1B, Chem-1 cells, [3H]-Prazosin 1 nM; read-out: Ki Alpha1B
T5 construct: expressed in transfected cells; host or cells: Chem-1
T5 sequence (P35368 1-520): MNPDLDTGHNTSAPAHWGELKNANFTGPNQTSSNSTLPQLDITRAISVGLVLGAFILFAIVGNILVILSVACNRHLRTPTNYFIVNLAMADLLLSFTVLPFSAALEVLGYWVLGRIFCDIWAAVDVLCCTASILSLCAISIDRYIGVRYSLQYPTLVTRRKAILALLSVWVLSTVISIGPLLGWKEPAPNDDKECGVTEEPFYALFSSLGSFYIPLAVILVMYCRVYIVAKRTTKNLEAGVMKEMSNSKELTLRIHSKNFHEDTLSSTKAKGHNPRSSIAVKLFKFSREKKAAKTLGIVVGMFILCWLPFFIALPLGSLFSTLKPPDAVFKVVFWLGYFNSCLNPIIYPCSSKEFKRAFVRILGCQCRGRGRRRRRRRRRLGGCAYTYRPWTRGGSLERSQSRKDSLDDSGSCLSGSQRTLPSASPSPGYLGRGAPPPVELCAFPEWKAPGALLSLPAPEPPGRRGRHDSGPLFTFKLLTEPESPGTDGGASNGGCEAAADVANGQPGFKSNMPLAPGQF
Description: Example-47: Determination of Ki Values at Adrenergic α1B Receptor
• Receptor source: Recombinant mammalian cells (Chem-1) • Radioligand: [^3H]-Prazosin (77.4 Ci/mmol) • Final ligand concentration: 1 nM • Non-specific determinant: 0.1 mM Prazosin • Reference compound: Prazosin • Positive control: Prazosin Incubation conditions: Reactions were carried out in buffer with pH 7.4 containing 67 mM Tris-HCl, 67 μM EDTA, […] for 1 h at RT. The reaction was terminated by rapid vacuum filtration onto the glass fiber filters. Radioactivity trapped onto the filters was determined and compared to the control values in order to ascertain any interactions of the test compound(s) with cloned human adrenergic α1B receptor binding site.

[3] = target: T6, human histamine H1 receptor (Homo sapiens, UniProt P35367); assay: Determination of Ki values at histamine H1 receptor ([3H]-Pyrilamine SPA binding); settings: hH1, CHO-K1, [3H]-Pyrilamine 2 nM
T6 construct: expressed in transfected cells; host or cells: CHO-K1
T6 sequence (P35367 whole entry): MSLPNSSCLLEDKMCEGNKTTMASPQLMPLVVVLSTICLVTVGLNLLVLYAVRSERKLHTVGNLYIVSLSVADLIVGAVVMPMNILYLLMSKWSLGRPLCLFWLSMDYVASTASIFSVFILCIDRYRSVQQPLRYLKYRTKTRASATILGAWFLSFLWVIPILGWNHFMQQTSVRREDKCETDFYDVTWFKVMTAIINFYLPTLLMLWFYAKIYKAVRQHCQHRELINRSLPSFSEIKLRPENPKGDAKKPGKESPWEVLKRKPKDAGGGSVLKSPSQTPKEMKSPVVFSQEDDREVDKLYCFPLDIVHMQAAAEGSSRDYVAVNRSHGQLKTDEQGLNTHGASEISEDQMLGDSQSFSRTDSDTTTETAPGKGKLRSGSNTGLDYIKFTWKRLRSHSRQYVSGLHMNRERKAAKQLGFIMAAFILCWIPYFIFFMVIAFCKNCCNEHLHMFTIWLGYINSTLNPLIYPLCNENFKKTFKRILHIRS
Description: Example-48: Determination of Ki values at Histamine H1 receptor
• Receptor source: Recombinant mammalian cells (CHO-K1) • Radioligand: [^3H]-Pyrilamine (20.7 Ci/mmol) • Final ligand concentration: 2 nM • Non-specific determinant: 0.1 mM Pyrilamine • Reference compound: Pyrilamine • Positive control: Pyrilamine Incubation conditions: Reactions were carried out in buffer with pH 7.4 containing 67 mM Tris-HCl and SPA beads (0.1 mg/well) for 1 h at 37° C. Radioactivity proximal to SPA beads was determined by scintillation proximity assay and compared to the control values in order to ascertain any interactions of the test compound(s) with cloned human histamine H1 receptor binding site.

DOPA levels in striatum = assay: Reserpine-induced DOPA accumulation; type: in vivo, Male Wistar rats; settings: rats, s.c.
Description: Example-53: Reserpine-Induced DOPA Accumulation
Male Wistar rats were pretreated with reserpine (5 mg/kg, s.c.) approximately 18 h before sacrifice and were thereafter fasted until sacrifice. Example-2 (3 mg/kg, p.o.) and (3-(3-hydroxyphenyl)-N-n-propylpiperidine (3-PPP); 30 mg/kg, s.c.) were administered 1.16 h and 1 h, respectively before sacrifice. Haloperidol (0.5 mg/kg, s.c.) was used as a positive control and was dosed 10 min prior to 3-PPP in a separate group of animals. 3-Hydroxybenzylhydrazine dihydrochloride (NSD-1015; 100 mg/kg, s.c.) was then administered 0.5 h before sacrifice. Each rat was sacrificed, brain was removed and then striatum was isolated. The tissue was immediately weighed and homogenized in 0.1 N perchloric acid by means of an ultrasonic disruptor while being cooled in ice. The homogenate was centrifuged at 4° C. at 20,000 g for 15 min. The supernatant was assayed for dihydroxyphenylalanine (DOPA) levels using HPLC-ECD.

SMILES	Ki (human 5-HT1A receptor) [nM]	Ki (human 5-HT2A receptor) [nM]	Ki [1] [nM]	Ki (human SERT) [nM]	Ki [2] [nM]	Ki [3] [nM]	Reversal in reserpine induced DOPA accumulation (DOPA levels in striatum; 30 mg/kg, 1 h before sacrifice, striatum) [%]	Increase in DOPA levels in striatum (DOPA levels in striatum; reserpine 5 mg/kg, about 18 h before sacrifice)
c1ccc2c(N3CCN(CCCOc4ccc(-c5cnco5)cn4)CC3)nsc2c1 [compound 22, 3-{4-[3-(5-Oxazol-5-yl-pyridin-2-yloxy)-propyl]-piperazin-1-yl}-benzo[d]isothiazole oxalate]	0.3	0.01	0.4	18.8	5.7	1.8	–	–
Cc1nnc(-c2csc(OCCCN3CCN(c4nsc5ccccc45)CC3)n2)o1 [Example-1, 3-(4-{3-[4-(5-Methyl-[1,3,4]oxadiazol-2-yl)-thiazol-2-yloxy]-propyl}-piperazin-1-yl)-benzo[d]isothiazole]	0.1	0.35	0.51	54.3	12.5	8.8	–	–
CCCN1CCCC(c2cccc(O)c2)C1 (centres unmarked) [Example 3-PPP, 3-(3-hydroxyphenyl)-N-n-propylpiperidine]	–	–	–	–	–	–	77	–
COC(=O)[C@H]1[C@H]2C[C@@H]3c4[nH]c5cc(OC)ccc5c4CCN3C[C@H]2C[C@@H](OC(=O)c2cc(OC)c(OC)c(OC)c2)[C@@H]1OC [reserpine]	–	–	–	–	–	–	–	about 194%

Second part, led by results:

Ki (human 5-HT1A receptor) [nM]	Ki (human 5-HT2A receptor) [nM]	Ki [1] [nM]	Ki (human SERT) [nM]	Ki [2] [nM]	Ki [3] [nM]	SMILES	Reversal in reserpine induced DOPA accumulation (DOPA levels in striatum; 30 mg/kg, 1 h before sacrifice, striatum) [%]	Increase in DOPA levels in striatum (DOPA levels in striatum; reserpine 5 mg/kg, about 18 h before sacrifice)
0.4	0.5	1.5	217	44.1	4.2	Cc1nc(-c2csc(OCCCN3CCN(c4nsc5ccccc45)CC3)n2)no1 [compound 10, 3-(4-{3-[4-(5-Methyl-[1,2,4]oxadiazol-3-yl)-thiazol-2-yloxy]-propyl}-piperazin-1-yl)-benzo[d]isothiazole oxalate]	–	–
1.8	0.3	0.7	1670	1.5	3.5	Cc1nnc(-c2csc(OCCCN3CCC(c4noc5cc(F)ccc45)CC3)n2)o1 [compound 24, 6-Fluoro-3-(1-{3-[4-(5-methyl-[1,3,4]oxadiazol-2-yl)-thiazol-2-yloxy]-propyl}-piperidin-4-yl)-benzo[d]isoxazole oxalate]	–	–

From patent publication US12338236B2, “Benzoisothiazole and benzoisoxazole compounds for the treatment of mental disorders” (SUVEN LIFE SCIENCES LIMITED, priority 2022, dated 2025)
